# Experimental data as given in publication PMC10303271, “Synthesis and Receptor Binding Studies of α5 GABAAR Selective Novel Imidazodiazepines Targeted for Psychiatric and Cognitive Disorders” (Molecules, 2023).
# Tests used:
# [1] = biological target: T1, 5-HT1D (Homo sapiens, UniProt P28221); experiment: PDSP primary binding 5-HT1D; conditions: 1.5 h; primary binding, 10,000 nM; last figure of the line = mean of the 4 before it; read-out: 5-HT1D, PDSP raw data, mean
# T1 construct: purchased NIMH Psychoactive Drug Screening Program (PDSP)
# Description: (§1) To determine if any off-target receptor-binding effects are present, all the novel ligands were sent to the National Institute of Mental Health (NIMH), Psychoactive Drug Screening Program (PDSP). The ligands were screened over a panel of 47 receptors, ion channels, and transporters to determine any other possible interactions with […]. The hERG-binding was also determined. […] No binding of the test compounds to calcium channels was observed. […] It is necessary to screen the compounds for hERG-binding during the early process of drug discovery. The unintentional binding of many drugs to hERG can cause blockade of hERG K+ channels in the heart, which can cause many side effects including cardiac arrhythmias and sudden death. […] All of the α5 imidazodiazepines were tested for hERG-binding.
# (§2) The NIMH PDSP assay protocol book [https://kidbdev.med.unc.edu/databases/PDSP%20Protocols%20II%202013-03-28.pdf accessed on 23 April 2023]. describes the protocols for primary and secondary radio-ligand binding assays. These assays were carried out in a final volume of 125 µL per well in the appropriate binding buffer.
# (§3) The binding of a ligand to a receptor, ion channel, or transporter was determined in the […] of 10 µM of the appropriate reference compound. […] Plates were incubated in the dark for 90 min at rt, and the reactions were stopped by vacuum filtration onto 0.3% polyethyleneimine (PEI) soaked 96-well filter mats using a 96-well Filtermateharvester. This was followed by three washes with cold PBS buffer. Radioactivity was then counted on a Microbeta counter. Nonlinear regression was used to analyze the data with N = 6 replicates.
# [2] = biological target: T2, 5-HT2A (Homo sapiens, UniProt P28223); experiment: PDSP primary binding 5-HT2A; conditions: 1.5 h; primary binding, 10,000 nM; last figure of the line = mean of the 4 before it; read-out: 5-HT2A, PDSP raw data, mean
# T2 construct: purchased NIMH Psychoactive Drug Screening Program (PDSP)
# Description: as §1, §2, §3
# [3] = biological target: T3, 5-HT1E (Homo sapiens, UniProt P28566); experiment: PDSP primary binding 5-HT1E; conditions: primary binding, 10,000 nM; last figure of the line = mean of the 4 before it
# T3 construct: purchased NIMH Psychoactive Drug Screening Program (PDSP)
# Description: as §1, §2, §3
# [4] = biological target: T4, D1 (Homo sapiens, UniProt P21728); experiment: PDSP primary binding D1; conditions: 1.5 h; primary binding, 10,000 nM; last figure of the line = mean of the 4 before it; read-out: D1, PDSP raw data, mean
# T4 construct: purchased NIMH Psychoactive Drug Screening Program (PDSP)
# Description: as §1, §2, §3
# [5] = biological target: T5, 5-HT2C (Homo sapiens, UniProt P28335); experiment: PDSP primary binding 5-HT2C; conditions: 1.5 h; primary binding, 10,000 nM; last figure of the line = mean of the 4 before it; read-out: 5-HT2C, PDSP raw data, mean
# T5 construct: purchased NIMH Psychoactive Drug Screening Program (PDSP)
# T5 sequence (P28335 33-458): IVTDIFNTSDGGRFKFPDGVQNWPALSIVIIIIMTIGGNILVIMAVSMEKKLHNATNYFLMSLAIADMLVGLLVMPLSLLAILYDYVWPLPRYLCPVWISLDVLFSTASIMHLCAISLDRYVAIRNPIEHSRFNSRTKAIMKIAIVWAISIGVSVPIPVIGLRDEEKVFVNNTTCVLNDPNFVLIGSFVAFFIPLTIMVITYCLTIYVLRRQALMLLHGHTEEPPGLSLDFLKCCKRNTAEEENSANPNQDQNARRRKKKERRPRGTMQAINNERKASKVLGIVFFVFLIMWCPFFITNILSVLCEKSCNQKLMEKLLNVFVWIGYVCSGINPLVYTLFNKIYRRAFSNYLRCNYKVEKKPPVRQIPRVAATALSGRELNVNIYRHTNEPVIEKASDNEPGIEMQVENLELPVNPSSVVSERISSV
# Description: as §1, §2, §3
# [6] = biological target: T6, H3 (Homo sapiens, UniProt Q9Y5N1); experiment: PDSP primary binding H3; conditions: primary binding, 10,000 nM; last figure of the line = mean of the 4 before it; read-out: H3, PDSP raw data, mean
# T6 construct: purchased NIMH Psychoactive Drug Screening Program (PDSP)
# Description: as §1, §2, §3
# [7] = biological target: T7, NET (Homo sapiens, UniProt P23975); experiment: PDSP primary binding NET; conditions: primary binding, 10,000 nM; last figure of the line = mean of the 4 before it; read-out: NET, PDSP raw data, mean
# T7 construct: purchased NIMH Psychoactive Drug Screening Program (PDSP)
# Description: as §1, §2, §3
# [8] = biological target: T8, Beta1 (Homo sapiens, UniProt P08588); experiment: PDSP primary binding Beta1; conditions: 1.5 h; primary binding, 10,000 nM; last figure of the line = mean of the 4 before it; read-out: Beta1, PDSP raw data, mean
# T8 construct: purchased NIMH Psychoactive Drug Screening Program (PDSP)
# Description: as §1, §2, §3
# [9] = biological target: T9, Alpha1B (Homo sapiens, UniProt P35368); experiment: PDSP primary binding Alpha1B; conditions: 1.5 h; primary binding, 10,000 nM; last figure of the line = mean of the 4 before it; read-out: Alpha1B, PDSP raw data, mean
# T9 construct: purchased NIMH Psychoactive Drug Screening Program (PDSP)
# T9 sequence (P35368 1-520): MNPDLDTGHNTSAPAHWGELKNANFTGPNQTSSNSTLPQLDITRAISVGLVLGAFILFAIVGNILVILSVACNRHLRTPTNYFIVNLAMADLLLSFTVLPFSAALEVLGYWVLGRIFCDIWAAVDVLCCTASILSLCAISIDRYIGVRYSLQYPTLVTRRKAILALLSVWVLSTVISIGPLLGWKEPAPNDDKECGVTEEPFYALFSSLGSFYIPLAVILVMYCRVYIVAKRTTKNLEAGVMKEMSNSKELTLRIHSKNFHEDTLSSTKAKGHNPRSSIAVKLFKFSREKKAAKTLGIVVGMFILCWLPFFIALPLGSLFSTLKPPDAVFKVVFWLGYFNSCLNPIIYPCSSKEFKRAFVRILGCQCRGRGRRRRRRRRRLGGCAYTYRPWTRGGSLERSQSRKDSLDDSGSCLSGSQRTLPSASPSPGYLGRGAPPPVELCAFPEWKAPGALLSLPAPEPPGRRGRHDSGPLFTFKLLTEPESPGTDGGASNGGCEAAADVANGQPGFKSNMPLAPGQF
# Description: as §1, §2, §3
# [10] = test system: NMDA; experiment: PDSP primary binding NMDA; conditions: primary binding, 10,000 nM; last figure of the line = mean of the 4 before it
# Description: as §1, §2, §3
# T8 sequence (P08588 whole entry): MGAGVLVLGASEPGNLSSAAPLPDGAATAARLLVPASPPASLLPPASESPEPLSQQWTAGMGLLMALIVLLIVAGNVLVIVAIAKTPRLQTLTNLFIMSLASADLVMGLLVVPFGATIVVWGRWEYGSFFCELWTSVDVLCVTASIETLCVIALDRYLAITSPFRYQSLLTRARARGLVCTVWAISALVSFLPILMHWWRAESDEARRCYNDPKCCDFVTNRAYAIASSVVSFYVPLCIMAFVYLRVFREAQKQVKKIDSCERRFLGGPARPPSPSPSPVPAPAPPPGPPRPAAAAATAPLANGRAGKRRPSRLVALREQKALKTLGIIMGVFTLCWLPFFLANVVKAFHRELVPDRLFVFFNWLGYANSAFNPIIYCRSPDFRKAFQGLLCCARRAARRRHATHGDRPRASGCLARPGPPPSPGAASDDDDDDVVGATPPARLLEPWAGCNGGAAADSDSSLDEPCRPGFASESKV
# T7 sequence (P23975 whole entry): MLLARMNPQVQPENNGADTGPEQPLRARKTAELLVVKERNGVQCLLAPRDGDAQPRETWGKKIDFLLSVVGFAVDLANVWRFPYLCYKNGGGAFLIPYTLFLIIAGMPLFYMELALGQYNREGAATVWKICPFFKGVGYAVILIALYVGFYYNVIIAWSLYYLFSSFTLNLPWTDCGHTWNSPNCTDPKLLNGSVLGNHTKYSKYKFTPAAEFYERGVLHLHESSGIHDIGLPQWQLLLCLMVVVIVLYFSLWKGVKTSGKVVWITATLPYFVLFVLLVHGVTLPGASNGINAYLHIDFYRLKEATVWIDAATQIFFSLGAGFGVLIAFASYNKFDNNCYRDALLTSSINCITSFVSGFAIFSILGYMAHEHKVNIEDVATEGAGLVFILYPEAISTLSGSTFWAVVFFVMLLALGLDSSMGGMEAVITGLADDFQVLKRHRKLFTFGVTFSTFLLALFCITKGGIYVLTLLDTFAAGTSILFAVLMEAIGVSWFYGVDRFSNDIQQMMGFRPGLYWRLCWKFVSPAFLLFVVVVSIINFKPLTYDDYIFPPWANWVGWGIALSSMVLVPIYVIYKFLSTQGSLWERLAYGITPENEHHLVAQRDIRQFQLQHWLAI
# T3 sequence (P28566 whole entry): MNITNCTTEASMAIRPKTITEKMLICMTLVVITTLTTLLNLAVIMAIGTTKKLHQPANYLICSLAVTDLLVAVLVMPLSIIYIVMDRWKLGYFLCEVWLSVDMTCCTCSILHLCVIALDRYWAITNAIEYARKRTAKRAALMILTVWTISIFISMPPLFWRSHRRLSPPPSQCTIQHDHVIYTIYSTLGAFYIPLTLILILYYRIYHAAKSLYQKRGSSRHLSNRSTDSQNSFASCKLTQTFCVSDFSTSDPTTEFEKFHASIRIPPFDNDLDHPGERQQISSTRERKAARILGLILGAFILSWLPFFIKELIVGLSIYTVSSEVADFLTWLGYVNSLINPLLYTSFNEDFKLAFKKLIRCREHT
# T6 sequence (Q9Y5N1 whole entry): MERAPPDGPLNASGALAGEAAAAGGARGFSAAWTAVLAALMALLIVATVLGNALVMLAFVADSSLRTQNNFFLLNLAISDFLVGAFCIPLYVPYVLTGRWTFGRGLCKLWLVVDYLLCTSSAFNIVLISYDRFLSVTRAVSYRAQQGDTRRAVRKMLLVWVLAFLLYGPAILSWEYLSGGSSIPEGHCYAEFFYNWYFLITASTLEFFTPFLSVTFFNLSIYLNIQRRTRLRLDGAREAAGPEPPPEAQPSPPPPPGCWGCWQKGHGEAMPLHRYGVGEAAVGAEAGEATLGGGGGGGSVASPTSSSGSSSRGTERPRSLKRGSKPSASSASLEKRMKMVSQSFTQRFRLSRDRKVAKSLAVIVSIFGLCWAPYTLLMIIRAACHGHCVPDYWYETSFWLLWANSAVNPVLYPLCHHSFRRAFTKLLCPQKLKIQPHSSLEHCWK
# T2 sequence (P28223 whole entry): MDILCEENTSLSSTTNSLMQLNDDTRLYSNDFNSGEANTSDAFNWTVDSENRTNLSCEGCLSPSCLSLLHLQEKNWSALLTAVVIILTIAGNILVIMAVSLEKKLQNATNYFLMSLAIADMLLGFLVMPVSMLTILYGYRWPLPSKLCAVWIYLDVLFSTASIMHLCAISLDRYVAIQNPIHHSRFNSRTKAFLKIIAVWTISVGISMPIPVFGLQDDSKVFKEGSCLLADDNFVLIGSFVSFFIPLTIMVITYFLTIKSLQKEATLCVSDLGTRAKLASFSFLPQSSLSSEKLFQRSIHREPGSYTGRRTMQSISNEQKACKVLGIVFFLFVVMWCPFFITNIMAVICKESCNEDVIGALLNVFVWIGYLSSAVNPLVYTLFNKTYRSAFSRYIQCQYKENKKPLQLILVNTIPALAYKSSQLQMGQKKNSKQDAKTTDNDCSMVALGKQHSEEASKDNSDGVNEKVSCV
# T1 sequence (P28221 whole entry): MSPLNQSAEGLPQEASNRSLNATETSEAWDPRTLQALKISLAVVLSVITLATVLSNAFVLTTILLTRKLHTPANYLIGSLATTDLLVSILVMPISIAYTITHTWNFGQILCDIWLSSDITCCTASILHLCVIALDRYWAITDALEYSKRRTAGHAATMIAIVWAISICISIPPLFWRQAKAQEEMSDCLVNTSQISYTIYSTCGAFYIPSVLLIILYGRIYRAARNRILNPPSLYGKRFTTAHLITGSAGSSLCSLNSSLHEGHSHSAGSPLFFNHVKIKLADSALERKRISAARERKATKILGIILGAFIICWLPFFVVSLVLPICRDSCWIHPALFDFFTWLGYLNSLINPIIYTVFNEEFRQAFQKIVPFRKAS
# T4 sequence (P21728 whole entry): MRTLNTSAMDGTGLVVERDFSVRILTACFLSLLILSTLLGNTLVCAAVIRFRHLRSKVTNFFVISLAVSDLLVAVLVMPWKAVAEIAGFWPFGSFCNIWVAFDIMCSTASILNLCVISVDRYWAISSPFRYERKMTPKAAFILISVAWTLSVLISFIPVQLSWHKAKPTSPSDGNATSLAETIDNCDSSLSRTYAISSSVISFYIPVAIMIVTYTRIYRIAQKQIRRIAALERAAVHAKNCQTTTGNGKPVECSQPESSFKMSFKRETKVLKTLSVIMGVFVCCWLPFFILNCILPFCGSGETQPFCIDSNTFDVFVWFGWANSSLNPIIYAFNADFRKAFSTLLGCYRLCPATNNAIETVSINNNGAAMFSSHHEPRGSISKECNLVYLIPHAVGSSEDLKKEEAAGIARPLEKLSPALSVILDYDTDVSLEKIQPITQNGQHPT
SMILES,inhibition at 10 µM [1],inhibition at 10 µM [2],"5-HT1E, PDSP raw data, mean [3]",inhibition at 10 µM [4],inhibition at 10 µM [5],inhibition at 10 µM [6],inhibition at 10 µM [7],inhibition at 10 µM [8],inhibition at 10 µM [9],"NMDA, PDSP raw data, mean [10]"
"C[C@H]1N=C(c2ccccc2F)c2cc(-c3ccccc3)ccc2-n2cnc(C(=O)N(C)C)c21 [Compound 5, (R)-6-(2′-Fluorophenyl)-N,N,4-trimethyl-8-phenyl-4H-benzo[f]imidazo[1,5-a][1,4]diazepine-3-carboxamide]",-3.41%,10.7%,34.07%,-35.4%,18%,5.94%,-6%,-15.8%,-15.3%,43.17%
"C#Cc1ccc2c(c1)C(c1ccccc1Cl)=N[C@H](C)c1c(C(=O)NC)ncn1-2 [Compound 21, (R)-6-(2′-Chlorophenyl)-8-ethynyl-N,4-dimethyl-4H-benzo[f]imidazo[1,5-a][1,4]diazepine-3-carboxamide]",-9.02%,-7.9%,7.75%,9.47%,-14.2%,4.81%,-2.45%,13.1%,-6.66%,77.15%
"C#Cc1ccc2c(c1)C(c1ccccn1)=N[C@@H](C)c1c(C(=O)NC)ncn1-2 [Compound 23, (S)-8-Ethynyl-N,4-dimethyl-6-(pyridin-2′-yl)-4H-benzo[f]imidazo[1,5-a][1,4]diazepine-3-carboxamide]",-15.1%,-0.6%,19.33%,-37.2%,-10.1%,-12.8%,2.62%,-10.8%,22.2%,89.17%
C#Cc1ccc2c(c1)C(c1ccccc1Cl)=N[C@H](C)c1c(C(=O)N(C)CC)ncn1-2 [Compound 29],-13.1%,-3.89%,19.25%,-31.5%,-10.7%,-29.5%,-2.63%,8.7%,19.8%,98.03%
"C#Cc1ccc2c(c1)C(c1ccccn1)=N[C@@H](C)c1c(C(=O)N(C)C)ncn1-2 [Compound 31, (S)-8-Ethynyl-N,N,4-trimethyl-6-(pyridin-2′-yl)-4H-benzo[f]imidazo[1,5-a][1,4]diazepine-3-carboxamide]",-15%,-13.1%,18.14%,-41.5%,-12.3%,-5.55%,10.2%,-16.2%,11%,17.3%
"C#Cc1ccc2c(c1)C(c1ccccc1F)=N[C@H](C)c1c(C(=S)N(C)C)ncn1-2 [Compound 33, (R)-8-Ethynyl-6-(2′-fluorophenyl)-N,N,4-trimethyl-4H-benzo[f]imidazo[1,5-a][1,4]diazepine-3-carbothioamide]",-3.41%,10.7%,34.07%,-35.4%,18%,5.94%,-6%,-15.8%,-15.3%,43.17%
"CCc1noc(-c2ncn3c2[C@@H](C)N=C(c2ccccc2F)c2cc(-c4ccccc4)ccc2-3)n1 [Compound 35, (R)-3-Ethyl-5-(6-(2′-fluorophenyl)-4-methyl-8-phenyl-4H-benzo[f]imidazo[1,5-a][1,4]diazepin-3-yl)-1,2,4-oxadiazole]",6.66%,32.3%,5.88%,29.2%,19.7%,4.89%,10.2%,0.99%,8.69%,37.76%
"CCc1noc(-c2ncn3c2[C@@H](C)N=C(c2ccccc2F)c2cc(Cl)ccc2-3)n1 [Compound 36, (R)-5-(8-Chloro-6-(2′-fluorophenyl)-4-methyl-4H-benzo[f]imidazo[1,5-a][1,4]diazepin-3-yl)-3-ethyl-1,2,4-oxadiazole]",-1.16%,11.1%,5.28%,42.8%,13.9%,-0.81%,-2.36%,-14.7%,-0.79%,55.6%
"CC(C)c1noc(-c2ncn3c2[C@@H](C)N=C(c2ccccc2F)c2cc(Cl)ccc2-3)n1 [Compound 37, (R)-5-(8-Chloro-6-(2′-fluorophenyl)-4-methyl-4H-benzo[f]imidazo[1,5-a][1,4]diazepin-3-yl)-3-isopropyl-1,2,4-oxadiazole]",9.73%,14.1%,-14.78%,27.4%,17.5%,6.42%,9.04%,8.14%,4.27%,54.13%
"C[C@H]1N=C(c2ccccc2F)c2cc(Cl)ccc2-n2cnc(-c3nc(C4CC4)no3)c21 [Compound 38, (R)-5-(8-Chloro-6-(2′-fluorophenyl)-4-methyl-4H-benzo[f]imidazo[1,5-a][1,4]diazepin-3-yl)-3-cyclopropyl-1,2,4-oxadiazole]",7.31%,11.6%,-22.45%,43%,7.18%,3.21%,-0.22%,9.95%,10.8%,65.22%
